Data published in US20110212100A1, “METHODS FOR MODULATING DEVELOPMENT AND EXPANSION OF IL-17 EXPRESSING CELLS” (priority 2007, published 2011).

Tests used:
[1] = tested on: CD4+ CD25− T cells activated in Th17-priming conditions; assay type: cell-based, mouse; settings: 10 nM HF vs MAZ1310, mean ± SD, triplicate
[2] = tested on: human memory T cells (CD4+ CD45RO+); assay: IL-17 and IFNγ expression by human memory T cells co-cultured with monocytes; assay type: cell-based; settings: 100 nM HF, 6 days
Experimental: FIG. 10F is an illustration depicting purified primary human memory T cells (CD4^+ CD45RO^+) activated by anti-CD3/anti-CD28 coated beads in co-culture with CD14^+ monocytes and treated with DMSO, 100 nM HF or 100 nM MAZ1310. T cells were expanded for 6 days and intracellular cytokine expression was determined following restimuation with PMA plus ionomycin in the presence of brefeldin A.
Human T cell isolation and activation: Resting CD4^+ T cells were isolated from PBMC of healthy human donors using Dynal CD4 Positive Isolation Kit (Invitrogen, Carlsbad, Calif.) as previously described (M. Sundrud et al., Blood 106, 3440, 2005). CD4^+ cells were further purified to obtain memory T cells by staining with PE-conjugated anti-human CD45RO-PE antibodies (BD Biosciences), and sorting on a FACSAria cytometer (BD Biosciences). Following purification, cells were greater than 99% CD4^+ CD45RO^+. […] T cells were expanded in the presence HF or MAZ1310 as indicated for 6 days and intracellular cytokine expression was determined by intracellular staining.
Detection of cytokine production: Cytokines secreted into media supernatant were measured using the mouse Th1/Th2 cytometric bead array (CBA, BD Pharmingen) in accordance with manufacturers instructions. […]

[3] = human, in vivo; cited from earlier work

SMILES: O=C(CC1NCCCC1O)Cn1cnc2cc(Br)c(Cl)cc2c1=O (racemic) [HF, 7-bromo-6-chloro-3-[3-(3-hydroxy-2-piperidinyl)-2-oxopropyl]-4(3H)-quinazolinone]
- Aars transcript, fold increase HF vs. MAZ1310-3 hr ([1]; 3 hr): 2.7 ± 0.4 fold
- Aff1 transcript, fold increase HF vs. MAZ1310-3 hr ([1]; 3 hr): 2.3 ± 0.4 fold
- Aldh18a1 transcript, fold increase HF vs. MAZ1310-3 hr ([1]; 3 hr): 2.1 ± 0.5 fold
- Asns transcript, fold increase HF vs. MAZ1310-3 hr ([1]; 3 hr): 6.1 ± 1.2 fold
- Atf3 transcript, fold increase HF vs. MAZ1310-3 hr ([1]; 3 hr): 3.0 ± 0.1 fold
- Atf5 transcript, fold increase HF vs. MAZ1310-3 hr ([1]; 3 hr): 2.4 ± 0.1 fold
- Cars transcript, fold increase HF vs. MAZ1310-3 hr ([1]; 3 hr): 2.2 ± 0.4 fold
- Cd274 transcript, fold increase HF vs. MAZ1310-3 hr ([1]; 3 hr): 2.1 ± 0.2 fold
- Cebpb transcript, fold increase HF vs. MAZ1310-3 hr ([1]; 3 hr): 3.9 ± 0.6 fold
- Cebpg transcript, fold increase HF vs. MAZ1310-3 hr ([1]; 3 hr): 2.5 ± 0.5 fold
- Chd2 transcript, fold increase HF vs. MAZ1310-3 hr ([1]; 3 hr): 2.2 ± 0.3 fold
- Cldn12 transcript, fold increase HF vs. MAZ1310-3 hr ([1]; 3 hr): 3.2 ± 0.7 fold
- Clic4 transcript, fold increase HF vs. MAZ1310-3 hr ([1]; 3 hr): 2.4 ± 0.2 fold
- Cth transcript, fold increase HF vs. MAZ1310-3 hr ([1]; 3 hr): 2.2 ± 0.7 fold
- Cxcl10 transcript, fold increase HF vs. MAZ1310-3 hr ([1]; 3 hr): 2.1 ± 0.3 fold
- D8Ertd56e transcript, fold increase HF vs. MAZ1310-3 hr ([1]; 3 hr): 2.1 ± 0.3 fold
- Ddit3 transcript, fold increase HF vs. MAZ1310-3 hr ([1]; 3 hr): 5.6 ± 1.1 fold
- Et4Ebp1 transcript, fold increase HF vs. MAZ1310-3 hr ([1]; 3 hr): 6.8 ± 1.8 fold
- Gpt2 transcript, fold increase HF vs. MAZ1310-3 hr ([1]; 3 hr): 10.0 ± 1.2 fold
- Herpud1 transcript, fold increase HF vs. MAZ1310-3 hr ([1]; 3 hr): 2.4 ± 0.3 fold
- Icam1 transcript, fold increase HF vs. MAZ1310-3 hr ([1]; 3 hr): 2.0 ± 0.1 fold
- Irf1 transcript, fold increase HF vs. MAZ1310-3 hr ([1]; 3 hr): 2.0 ± 0.3 fold
- Lers transcript, fold increase HF vs. MAZ1310-3 hr ([1]; 3 hr): 2.3 ± 0.3 fold
- Mpa2l transcript, fold increase HF vs. MAZ1310-3 hr ([1]; 3 hr): 2.3 ± 0.3 fold
- Ncoa7 transcript, fold increase HF vs. MAZ1310-3 hr ([1]; 3 hr): 3.0 ± 0.3 fold
- Nfkbiz transcript, fold increase HF vs. MAZ1310-3 hr ([1]; 3 hr): 2.0 ± 0.3 fold
- Past1 transcript, fold increase HF vs. MAZ1310-3 hr ([1]; 3 hr): 2.1 ± 0.5 fold
- Pck2 transcript, fold increase HF vs. MAZ1310-3 hr ([1]; 3 hr): 4.9 ± 0.8 fold
- Pdcd1lg2 transcript, fold increase HF vs. MAZ1310-3 hr ([1]; 3 hr): 3.2 ± 0.7 fold
- Phgdh transcript, fold increase HF vs. MAZ1310-3 hr ([1]; 3 hr): 3.8 ± 0.9 fold
- Psph transcript, fold increase HF vs. MAZ1310-3 hr ([1]; 3 hr): 3.5 ± 0.4 fold
- Pvr transcript, fold increase HF vs. MAZ1310-3 hr ([1]; 3 hr): 2.0 ± 0.3 fold
- Pycr1 transcript, fold increase HF vs. MAZ1310-3 hr ([1]; 3 hr): 4.6 ± 0.7 fold
- Pycs transcript, fold increase HF vs. MAZ1310-3 hr ([1]; 3 hr): 2.1 ± 0.2 fold
- Sars1 transcript, fold increase HF vs. MAZ1310-3 hr ([1]; 3 hr): 2.0 ± 0.3 fold
- Sesn2 transcript, fold increase HF vs. MAZ1310-3 hr ([1]; 3 hr): 2.6 ± 0.3 fold
- Slamf7 transcript, fold increase HF vs. MAZ1310-3 hr ([1]; 3 hr): 2.2 ± 0.4 fold
- Slc1a4 transcript, fold increase HF vs. MAZ1310-3 hr ([1]; 3 hr): 3.2 ± 0.9 fold
- Slc6a9 transcript, fold increase HF vs. MAZ1310-3 hr ([1]; 3 hr): 2.4 ± 0.3 fold
- Slc7a3 transcript, fold increase HF vs. MAZ1310-3 hr ([1]; 3 hr): 2.0 ± 0.2 fold
- Slc14a1 transcript, fold increase HF vs. MAZ1310-3 hr ([1]; 3 hr): 2.0 ± 0.1 fold
- Trib3 transcript, fold increase HF vs. MAZ1310-3 hr ([1]; 3 hr): 7.1 ± 2.0 fold
- Trim12 transcript, fold increase HF vs. MAZ1310-3 hr ([1]; 3 hr): 2.4 ± 0.1 fold
- Vegfa transcript, fold increase HF vs. MAZ1310-3 hr ([1]; 3 hr): 3.2 ± 0.2 fold
- Xist transcript, fold increase HF vs. MAZ1310-3 hr ([1]; 3 hr): 3.5 ± 1.7 fold
- Aars transcript, fold increase HF vs. MAZ1310-6 hr ([1]; 6 hr): 2.6 ± 0.2 fold
- Aff1 transcript, fold increase HF vs. MAZ1310-6 hr ([1]; 6 hr): 2.6 ± 0.3 fold
- Aldh18a1 transcript, fold increase HF vs. MAZ1310-6 hr ([1]; 6 hr): 2.7 ± 0.2 fold
- Asns transcript, fold increase HF vs. MAZ1310-6 hr ([1]; 6 hr): 7.1 ± 0.5 fold
- Atf3 transcript, fold increase HF vs. MAZ1310-6 hr ([1]; 6 hr): 3.2 ± 0.5 fold
- Atf5 transcript, fold increase HF vs. MAZ1310-6 hr ([1]; 6 hr): 8.9 ± 1.0 fold
- Cars transcript, fold increase HF vs. MAZ1310-6 hr ([1]; 6 hr): 2.2 ± 0.3 fold
- Cd274 transcript, fold increase HF vs. MAZ1310-6 hr ([1]; 6 hr): 2.0 ± 0.1 fold
- Cebpb transcript, fold increase HF vs. MAZ1310-6 hr ([1]; 6 hr): 8.0 ± 0.2 fold
- Cebpg transcript, fold increase HF vs. MAZ1310-6 hr ([1]; 6 hr): 3.1 ± 0.5 fold
- Chd2 transcript, fold increase HF vs. MAZ1310-6 hr ([1]; 6 hr): 2.5 ± 0.5 fold
- Cldn12 transcript, fold increase HF vs. MAZ1310-6 hr ([1]; 6 hr): 4.6 ± 0.5 fold
- Clic4 transcript, fold increase HF vs. MAZ1310-6 hr ([1]; 6 hr): 2.8 ± 0.2 fold
- Cth transcript, fold increase HF vs. MAZ1310-6 hr ([1]; 6 hr): 16.0 ± 1.6 fold
- Cxcl10 transcript, fold increase HF vs. MAZ1310-6 hr ([1]; 6 hr): 2.1 ± 0.1 fold
- D8Ertd56e transcript, fold increase HF vs. MAZ1310-6 hr ([1]; 6 hr): 3.1 ± 0.8 fold
- Ddit3 transcript, fold increase HF vs. MAZ1310-6 hr ([1]; 6 hr): 5.0 ± 0.7 fold
- Et4Ebp1 transcript, fold increase HF vs. MAZ1310-6 hr ([1]; 6 hr): 5.3 ± 0.3 fold
- Gpt2 transcript, fold increase HF vs. MAZ1310-6 hr ([1]; 6 hr): 16.7 ± 2.2 fold
- Herpud1 transcript, fold increase HF vs. MAZ1310-6 hr ([1]; 6 hr): 2.7 ± 0.1 fold
- Icam1 transcript, fold increase HF vs. MAZ1310-6 hr ([1]; 6 hr): 2.8 ± 0.3 fold
- Irf1 transcript, fold increase HF vs. MAZ1310-6 hr ([1]; 6 hr): 2.6 ± 0.2 fold
- Lers transcript, fold increase HF vs. MAZ1310-6 hr ([1]; 6 hr): 2.1 ± 0.0 fold
- Mpa2l transcript, fold increase HF vs. MAZ1310-6 hr ([1]; 6 hr): 7.3 ± 1.7 fold
- Ncoa7 transcript, fold increase HF vs. MAZ1310-6 hr ([1]; 6 hr): 3.2 ± 0.5 fold
- Nfkbiz transcript, fold increase HF vs. MAZ1310-6 hr ([1]; 6 hr): 1.9 ± 0.3 fold
- Past1 transcript, fold increase HF vs. MAZ1310-6 hr ([1]; 6 hr): 2.6 ± 0.0 fold
- Pck2 transcript, fold increase HF vs. MAZ1310-6 hr ([1]; 6 hr): 7.4 ± 0.9 fold
- Pdcd1lg2 transcript, fold increase HF vs. MAZ1310-6 hr ([1]; 6 hr): 2.5 ± 0.3 fold
- Phgdh transcript, fold increase HF vs. MAZ1310-6 hr ([1]; 6 hr): 4.2 ± 0.3 fold
- Psph transcript, fold increase HF vs. MAZ1310-6 hr ([1]; 6 hr): 3.4 ± 0.3 fold
- Pvr transcript, fold increase HF vs. MAZ1310-6 hr ([1]; 6 hr): 2.0 ± 0.1 fold
- Pycr1 transcript, fold increase HF vs. MAZ1310-6 hr ([1]; 6 hr): 6.6 ± 0.4 fold
- Pycs transcript, fold increase HF vs. MAZ1310-6 hr ([1]; 6 hr): 2.3 ± 0.1 fold
- Sars1 transcript, fold increase HF vs. MAZ1310-6 hr ([1]; 6 hr): 2.3 ± 0.1 fold
- Sesn2 transcript, fold increase HF vs. MAZ1310-6 hr ([1]; 6 hr): 2.3 ± 0.2 fold
- Slamf7 transcript, fold increase HF vs. MAZ1310-6 hr ([1]; 6 hr): 2.1 ± 0.2 fold
- Slc1a4 transcript, fold increase HF vs. MAZ1310-6 hr ([1]; 6 hr): 4.6 ± 0.4 fold
- Slc6a9 transcript, fold increase HF vs. MAZ1310-6 hr ([1]; 6 hr): 5.7 ± 0.6 fold
- Slc7a3 transcript, fold increase HF vs. MAZ1310-6 hr ([1]; 6 hr): 6.5 ± 0.9 fold
- Slc14a1 transcript, fold increase HF vs. MAZ1310-6 hr ([1]; 6 hr): 6.6 ± 0.4 fold
- Trib3 transcript, fold increase HF vs. MAZ1310-6 hr ([1]; 6 hr): 18.5 ± 8.5 fold
- Trim12 transcript, fold increase HF vs. MAZ1310-6 hr ([1]; 6 hr): 4.9 ± 0.7 fold
- Vegfa transcript, fold increase HF vs. MAZ1310-6 hr ([1]; 6 hr): 5.8 ± 0.5 fold
- Xist transcript, fold increase HF vs. MAZ1310-6 hr ([1]; 6 hr): 2.1 ± 0.7 fold
- IFNγ expression by human T cells, in words [2]: essentially unaffected
- percentage of human T cells expressing IL-17 and amount of IL-17 produced, in words [2]: greatly reduced
- HF in serum during topical treatment, in words [3]: undetectable in serum
